In the NIST ThermoML archive (doi:10.1021/je800224k):

Conditions: Liquid

CCn1cc[n+](C)c1.F[B-](F)(F)F [1-ethyl-3-methylimidazolium tetrafluoroborate]
Conditions | mass density [kg/m3]
293.15 K, 101.33 kPa, Vibrating tube method | 1284.4
313.15 K, 101.33 kPa, Vibrating tube method | 1269.1
313.2 K, 10000 kPa, Bellows volumetry | 1274
313.2 K, 20000 kPa, Bellows volumetry | 1278
313.2 K, 30000 kPa, Bellows volumetry | 1282
313.2 K, 40000 kPa, Bellows volumetry | 1287
313.2 K, 50000 kPa, Bellows volumetry | 1291
313.2 K, 60000 kPa, Bellows volumetry | 1295
313.2 K, 70000 kPa, Bellows volumetry | 1299
313.2 K, 80000 kPa, Bellows volumetry | 1302
313.2 K, 90000 kPa, Bellows volumetry | 1306
313.2 K, 100000 kPa, Bellows volumetry | 1310
313.2 K, 110000 kPa, Bellows volumetry | 1313
313.2 K, 120000 kPa, Bellows volumetry | 1317
313.2 K, 130000 kPa, Bellows volumetry | 1320
313.2 K, 140000 kPa, Bellows volumetry | 1323
313.2 K, 150000 kPa, Bellows volumetry | 1327
313.2 K, 160000 kPa, Bellows volumetry | 1330
313.2 K, 170000 kPa, Bellows volumetry | 1333
313.2 K, 180000 kPa, Bellows volumetry | 1336
313.2 K, 190000 kPa, Bellows volumetry | 1339
313.2 K, 200000 kPa, Bellows volumetry | 1342
332.6 K, 10000 kPa, Bellows volumetry | 1259
332.6 K, 20000 kPa, Bellows volumetry | 1264
332.6 K, 30000 kPa, Bellows volumetry | 1268
332.6 K, 40000 kPa, Bellows volumetry | 1273
332.6 K, 50000 kPa, Bellows volumetry | 1277
332.6 K, 60000 kPa, Bellows volumetry | 1281
332.6 K, 70000 kPa, Bellows volumetry | 1285
332.6 K, 80000 kPa, Bellows volumetry | 1289
332.6 K, 90000 kPa, Bellows volumetry | 1293
332.6 K, 100000 kPa, Bellows volumetry | 1297
332.6 K, 110000 kPa, Bellows volumetry | 1300
332.6 K, 120000 kPa, Bellows volumetry | 1304
332.6 K, 130000 kPa, Bellows volumetry | 1307
332.6 K, 140000 kPa, Bellows volumetry | 1311
332.6 K, 150000 kPa, Bellows volumetry | 1314
332.6 K, 160000 kPa, Bellows volumetry | 1317
332.6 K, 170000 kPa, Bellows volumetry | 1321
332.6 K, 180000 kPa, Bellows volumetry | 1324
332.6 K, 190000 kPa, Bellows volumetry | 1327
332.6 K, 200000 kPa, Bellows volumetry | 1330
333.15 K, 101.33 kPa, Vibrating tube method | 1254
352.7 K, 10000 kPa, Bellows volumetry | 1244
352.7 K, 20000 kPa, Bellows volumetry | 1249
352.7 K, 30000 kPa, Bellows volumetry | 1254
352.7 K, 40000 kPa, Bellows volumetry | 1259
352.7 K, 50000 kPa, Bellows volumetry | 1263
352.7 K, 60000 kPa, Bellows volumetry | 1267
352.7 K, 70000 kPa, Bellows volumetry | 1272
352.7 K, 80000 kPa, Bellows volumetry | 1276
352.7 K, 90000 kPa, Bellows volumetry | 1280
352.7 K, 100000 kPa, Bellows volumetry | 1284
352.7 K, 110000 kPa, Bellows volumetry | 1287
352.7 K, 120000 kPa, Bellows volumetry | 1291
352.7 K, 130000 kPa, Bellows volumetry | 1295
352.7 K, 140000 kPa, Bellows volumetry | 1298
352.7 K, 150000 kPa, Bellows volumetry | 1302
352.7 K, 160000 kPa, Bellows volumetry | 1305
352.7 K, 170000 kPa, Bellows volumetry | 1309
352.7 K, 180000 kPa, Bellows volumetry | 1312
352.7 K, 190000 kPa, Bellows volumetry | 1315
352.7 K, 200000 kPa, Bellows volumetry | 1318
353.15 K, 101.33 kPa, Vibrating tube method | 1239.3
372.8 K, 10000 kPa, Bellows volumetry | 1230
372.8 K, 20000 kPa, Bellows volumetry | 1235
372.8 K, 30000 kPa, Bellows volumetry | 1240
372.8 K, 40000 kPa, Bellows volumetry | 1245
372.8 K, 50000 kPa, Bellows volumetry | 1250
372.8 K, 60000 kPa, Bellows volumetry | 1254
372.8 K, 70000 kPa, Bellows volumetry | 1258
372.8 K, 80000 kPa, Bellows volumetry | 1263
372.8 K, 90000 kPa, Bellows volumetry | 1267
372.8 K, 100000 kPa, Bellows volumetry | 1271
372.8 K, 110000 kPa, Bellows volumetry | 1275
372.8 K, 120000 kPa, Bellows volumetry | 1279
372.8 K, 130000 kPa, Bellows volumetry | 1282
372.8 K, 140000 kPa, Bellows volumetry | 1286
372.8 K, 150000 kPa, Bellows volumetry | 1290
372.8 K, 160000 kPa, Bellows volumetry | 1293
372.8 K, 170000 kPa, Bellows volumetry | 1297
372.8 K, 180000 kPa, Bellows volumetry | 1300
372.8 K, 190000 kPa, Bellows volumetry | 1303
372.8 K, 200000 kPa, Bellows volumetry | 1307
392.9 K, 10000 kPa, Bellows volumetry | 1216
392.9 K, 20000 kPa, Bellows volumetry | 1221
392.9 K, 30000 kPa, Bellows volumetry | 1227
392.9 K, 40000 kPa, Bellows volumetry | 1232
392.9 K, 50000 kPa, Bellows volumetry | 1237
392.9 K, 60000 kPa, Bellows volumetry | 1241
392.9 K, 70000 kPa, Bellows volumetry | 1246
392.9 K, 80000 kPa, Bellows volumetry | 1250
